“Also recorded” adds a separate entry of the source.
Experiments:
[1] = caused by microbial infections including P. acnes; salicylic acid alone; cited from earlier work
[2] = topical treatment of nail infections; format: in vivo, human; conditions: non-synergistic composition, twice daily
From the text: The participating subjects in the present study were instructed to apply twice daily the composition containing phenyl 2-acetoxyethanoic acid or diphenyl 2-acetoxyethanoic acid with or without clotrimazole as an additional antimicrobial agent.
In order to determine the antimicrobial effect of an aryl 2-acetoxyethanoicacid, a standard test method of Minimum Inhibitory Concentration (MIC) against the growth of 10 bacteria was used. To determine a prophylactic effect against the development of, as well as a topical effect in the treatment of, body foul door, eleven human subjects participated in this study. […] Scientific and test results are overviewed as follows.

[3] = prophylactic effect in preventing the development of axillary foul odor; format: in vivo, human; conditions: Example 5; 0.5% solution, topical; one person; up to 24 hours
Experimental: A typical test for prophylactic effect in preventing the development of axillary foul odor was carried out as follows. A test composition was prepared by dissolving 0.5 g of phenyl 2-acetoxyethanoic acid or diphenyl 2-acetoxyethanoic acid in 70 ml of ethanol and 30 ml of propylene glycol. The control vehicle was prepared by mixing 70 ml of ethanol and 30 ml of propylene glycol. A human subject was instructed to take a shower in the morning using ordinary soap to clean the body surfaces. After the skin was dried, the test composition was topically applied to the left underarm area only. The vehicle control was topically applied to the right underarm area. Both underarm areas were monitored by the subject and at least one other person approximately every 8 hours to determine whether the test composition had any prophylactic effect in preventing the development of underarm foul odor in the left axilla as compared to the vehicle alone on the right control armpit.
Presence or substantial absence of foul odor, detected by smell, was adopted as the criteria for ineffectiveness or effectiveness of the test composition.
A total of seven subjects (four females; three males) participated in several studies. Most of these subjects could not use existing commercial products of antiperspirants or deodorants because of severe irritation after topical application. […]

[4] = axillary antiodor effectiveness (treatment); format: in vivo, human; conditions: 0.5%
From the text: In another study the subjects were instructed not to take a shower in the morning. After the foul odor developed in both axillae, the subjects were instructed to apply the test composition containing 0.5% phenyl 2-acetoxyethanoic acid or diphenyl 2-acetoxyethanoic acid on the left underarm area and the control vehicle on the right underarm area. Topical applications were made once daily for several days.
Usually the left underarm ceased emanating any detectable foul odor after 1 day of topical use. The subjects were instructed at this time to apply the test composition containing 0.5% phenyl 2-acetoxyethanoic acid or diphenyl 2-acetoxyethanoic acid on the right underarm area also. Topical applications were made once daily for several days. The right axilla ceased to emanate any detectable foul odor after 1 to 2 days of topical use.

[5] = reversal of corticosteroid unresponsiveness in psoriasis; format: in vivo, human; conditions: added once daily to corticosteroid twice daily; seven patients
Experimental: To determine the therapeutic responsive effect of an aryl 2-acetoxyethanoicacid against psoriasis seven patient participated in this study. A test composition was prepared by dissolving 1 g phenyl 2-acetoxyethanoic acid or diphenyl 2-acetoxyethanoic acid in 2 ml ethanol. The solution thus obtained was mixed with 60 g petrolatum and 37 g mineral oil. The anhydrous ointment thus formulated was packaged in one-ounce jars.
When the drug unresponsiveness to a corticosteroid occurred, the participating patients were instructed to apply in addition the test composition once daily to the lesions on the left side of the body only. Topical applications of the corticosteroid were continued twice daily to both sides of the body. […] While psoriatic lesions on the right side of the body remained unresponsive to the topical corticosteroid, the lesions on the left side started to clear after 3 to 4 weeks of additional topical application with the composition containing an aryl 2-acetoxyethanoic acid.
At this time the patients were instructed to shift the additional topical application to the lesions on the right side instead of the left side of the body. The psoriatic lesions on the right side of the body began to clear after 3 to 4 weeks of additional topical application with the composition containing aryl 2-acetoxyethanoic acid.

[6] = topical treatment of folliculitis and perifolliculitis; format: in vivo, human; conditions: 0.9%, twice daily; nine patients
Experimental: Nine patients having various degrees of folliculitis and perifolliculitis participated in this study. A test composition containing 0.9% phenyl 2-acetoxyethanoic acid or diphenyl 2-acetoxyethanoic acid was prepared by dissolving 0.9 g compound in 79.1 ml 2-propanol, 15 ml butane-1,3-diol and 5 ml nonoxynol-6. The composition was packaged in one-ounce bottles. The patients were instructed to apply the test composition twice daily on the infected skin lesions and involved areas. Topical applications were continued up to 8 weeks.

[7] = treatment of oral infections; format: in vivo, human; conditions: 2% composition diluted to 0.1%; oral rinse twice daily
Experimental: Compositions for treatment of oral infections may contain an aryl 2-acetoxyethanoic acid as the only active ingredient. In this case a phenyl 2-acetoxyethanoic acid or diphenyl 2-acetoxyethanoic acid 2% composition was formulated by dissolving the active ingredient 2 g in ethanol 78 ml and propylene glycol 20 ml. Before use, this composition was diluted to 0.1% with water by mixing one part of the composition with 19 parts of water. The treatment involves oral rinse, wash and gargle by keeping the diluted composition inside the oral cavity for a few minutes, and then spit out. Such procedure may be repeated twice daily for several days until the infection is eradicated usually within 5-7 days.

SMILES | effect against acne lesions associated with whiteheads [1] | disappearance of nail infections [2] | prevention of axillary foul odor (left underarm) [3] | overall axillary antiodor effectiveness ([4]; topical) | left axilla on continued use ([4]; continued, once daily for several days) | time after which left underarm usually ceased emanating any detectable foul odor ([4]; no-shower study, left side) | intensity of foul odor, left underarm ([4]; no-shower study, once daily) | time after which left underarm ceased emanating any detectable foul odor ([4]; Example 6, once daily, one person, left side) | time after which right axilla ceased to emanate any detectable foul odor ([4]; Example 6, right side, formerly vehicle) | onset of improvement of psoriatic lesions, left side [5] | deeper lesions of papules [6] | superficial folliculitis and perifolliculitis lesions [6] | time within which oral infection is usually eradicated [7]
O=C(O)c1ccccc1O [salicylic acid] | not therapeutically effective against acne lesions associated with whiteheads |  |  |  |  |  |  |  |  |  |  |  | 
CC(=O)OC(C(=O)O)(c1ccccc1)c1ccccc1 [diphenyl 2-acetoxyethanoic acid] |  | usually disappeared within one to several months | did not produce any detectable odor, even after 24 hours; also recorded: substantially effective in preventing the development of axillary foul odor | topically effective in eradicating the axillary foul odor | continued to maintain the condition free of any offensive foul odor | 1 days | diminished in intensity of foul odor after one to two days of topical application | 1 days | 1 days | began to improve after one week | eradicated or substantially improved after 4 to 8 weeks of topical applications | eradicated or substantially improved after a few days of topical applications | 5 to 7 days

Source: US6046238A, “Method for treating or preventing the spread of acne vulgaris” (TriStrata, Inc., priority 1999, dated 2000)
